These results are taken from US12128079B2, “Enteric aerobization therapy” (LPOXY THERAPEUTICS, INC., priority 2021, dated 2024).

“Also recorded” adds a separate entry of the source. Like-named read-outs stand apart in the source and are kept apart here.

In data set [1] the test system is Clostridioides difficile ATCC 43255. The settings on record: for animals showing clinical signs of infection (recurrence) in the 2nd week after inoculation and treatment: days 8-14; for survival: mice followed 14 days after inoculation, treatment day 0 to day 4; for onset of action / cure rate: mouse CDI model; for cure rate: 14 days after inoculation; for clinical severity / clinical observations versus infection control group: FIGS. 7-10.
Description: Thirty C57BL/6 female mice (18-22 g) fitted with duodenal catheters externalized and fitted with access button ports were purchased from Charles River Laboratories and singly housed in a temperature and humidity-controlled room with a 12-hour light cycle. The mice were divided into 3 groups of 10. All procedures used in these experimental protocols were in compliance with the Animal Welfare Act, the Guide for the Care and Use of Laboratory Animals, and the Office of Laboratory Animal Welfare.
The mice were pretreated with an antibiotic cocktail in their drinking water for 8 consecutive days. This antibiotic cocktail was composed of 1% glucose, 500 mcg/mL kanamycin, 44 mcg/mL gentamicin, 1062.5 units per milliliter colistin, 269 mcg/mL metronidazole, 156 mcg/mL ciprofloxacin, 100 mcg/mL ampicillin, and 56 mcg/mL vancomycin. The antibiotic cocktail and drinking water were replaced every 2 to 3 days. Five days prior to infection the antibiotic water was removed and normal drinking water was provided to the animals. Three days prior to infection the animals received a single dose of clindamycin 10 mg per kilogram via oral administration in a volume of 10 mL per kilogram.
On study Day 0 mice were inoculated with the bacterial suspension of 5×10^5 CFU Clostridioides difficile ATCC 43255 via oral gavage. Eight hours after inoculation administration of vehicle, antibiotic control, and test article was initiated according to the following. The vehicle a.k.a. infection control group of 10 mice received 80 μL per hour 100% pure nitrogen gas via duodenal catheter. The infection control group of 10 mice received 50 mg/kg vancomycin via oral gavage once daily. […] Administration was continued from study day 0 to study day 4, a total of 5 days. The mice were followed for 14 days after inoculum recording daily weights and clinical observations. Animals that appeared severely moribund were euthanized. At the end of the study all animals were humanely euthanized.

The conditions of data set [2]: up to the maximum bolus tested, 200 microliters every 6 hours (8 mL/kg per bolus; 32 mL/kg/day). The method, then:
In a separate experiment using the above conditions the tolerance of bolus injection of 100% oxygen gas was tested.

Regarding `CN[C@H](CC(C)C)C(=O)N[C@H]1C(=O)N[C@@H](CC(N)=O)C(=O)N[C@H]2C(=O)N[C@H]3C(=O)N[C@H](C(=O)N[C@H](C(=O)O)c4cc(O)cc(O)c4-c4cc3ccc4O)[C@H](O)c3ccc(c(Cl)c3)Oc3cc2cc(c3O[C@@H]2O[C@H](CO)[C@@H](O)[C@H](O)[C@H]2O[C@H]2C[C@](C)(N)[C@H](O)[C@H](C)O2)Oc2ccc(cc2Cl)[C@H]1O` [vancomycin, reference compound], in data set [1], the “animals showing clinical signs of infection (recurrence) in the 2nd week after inoculation and treatment” value (“animals showing clinical signs” below) was 70%; the survival was 100%; the onset of action result is given as “more rapid onset of action”; the cure rate amounted to 30%. Also, in data set [1] (listed as antibiotic control group), the “animals showing clinical signs” value was “Seventy”.

As to `O=O` [EAT, oxygen], in data set [1], the “clinical severity / clinical observations versus infection control group” value is given as “fewer sick animals compared to the infection control group; also recorded: mildly ill compared to the infection control group”; the “animals showing clinical signs” value is “no recurrent infections”; the survival was determined as 100%; the onset of action entry is on record as “slower onset of action”. The molecule further gave a cure rate in data set [1] of 100%. For the same molecule, in data set [1] (listed as Enteric aerobization therapy), the “clinical severity / clinical observations versus infection control group” value is listed as “reduces the severity of disease, accelerates recovery”. The “adverse effects due to gas infusion” value in data set [1] (infusion via duodenal catheter 3.2 mL/kg/hr, 76.8 mL/kg/day) was “no adverse effects”. Besides, the “adverse effects of bolus injection” value in data set [2] was “No adverse effects were observed”.
